Like-named read-outs stand apart in the source and are kept apart here.

This note sets out measurements from US20060045953A1 (priority 2004, published 2006).

The assay addresses T1, hT1R1/hT1R3 umami receptor (Homo sapiens, UniProt Q7RTX0+Q7RTX1).
T1 construct: expressed in transfected cells; host or cells: HEK293 derivative stably expressing Gα15, clone I-17, expression induced with mifepristone
T1 sequence (Q7RTX1 21-841): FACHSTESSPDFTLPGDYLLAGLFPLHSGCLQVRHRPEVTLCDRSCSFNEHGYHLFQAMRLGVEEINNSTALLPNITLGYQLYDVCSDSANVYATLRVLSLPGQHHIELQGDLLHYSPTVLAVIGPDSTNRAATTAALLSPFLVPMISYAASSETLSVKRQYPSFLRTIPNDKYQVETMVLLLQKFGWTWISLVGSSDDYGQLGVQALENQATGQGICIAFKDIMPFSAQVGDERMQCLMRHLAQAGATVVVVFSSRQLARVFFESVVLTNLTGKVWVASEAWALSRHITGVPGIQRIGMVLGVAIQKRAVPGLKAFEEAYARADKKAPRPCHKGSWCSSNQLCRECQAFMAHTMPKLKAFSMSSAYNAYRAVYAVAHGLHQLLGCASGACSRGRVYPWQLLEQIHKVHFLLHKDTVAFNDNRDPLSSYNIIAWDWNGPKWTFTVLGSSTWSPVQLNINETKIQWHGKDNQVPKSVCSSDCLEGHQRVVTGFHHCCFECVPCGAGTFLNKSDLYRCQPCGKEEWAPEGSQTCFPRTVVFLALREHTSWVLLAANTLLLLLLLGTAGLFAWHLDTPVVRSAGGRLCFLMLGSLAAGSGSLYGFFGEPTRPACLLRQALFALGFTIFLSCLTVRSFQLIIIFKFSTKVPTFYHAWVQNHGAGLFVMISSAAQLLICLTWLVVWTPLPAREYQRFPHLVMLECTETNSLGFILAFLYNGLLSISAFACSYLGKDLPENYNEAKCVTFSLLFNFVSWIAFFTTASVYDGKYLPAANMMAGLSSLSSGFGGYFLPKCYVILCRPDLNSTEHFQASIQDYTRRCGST
T1 sequence (Q7RTX0 21-852): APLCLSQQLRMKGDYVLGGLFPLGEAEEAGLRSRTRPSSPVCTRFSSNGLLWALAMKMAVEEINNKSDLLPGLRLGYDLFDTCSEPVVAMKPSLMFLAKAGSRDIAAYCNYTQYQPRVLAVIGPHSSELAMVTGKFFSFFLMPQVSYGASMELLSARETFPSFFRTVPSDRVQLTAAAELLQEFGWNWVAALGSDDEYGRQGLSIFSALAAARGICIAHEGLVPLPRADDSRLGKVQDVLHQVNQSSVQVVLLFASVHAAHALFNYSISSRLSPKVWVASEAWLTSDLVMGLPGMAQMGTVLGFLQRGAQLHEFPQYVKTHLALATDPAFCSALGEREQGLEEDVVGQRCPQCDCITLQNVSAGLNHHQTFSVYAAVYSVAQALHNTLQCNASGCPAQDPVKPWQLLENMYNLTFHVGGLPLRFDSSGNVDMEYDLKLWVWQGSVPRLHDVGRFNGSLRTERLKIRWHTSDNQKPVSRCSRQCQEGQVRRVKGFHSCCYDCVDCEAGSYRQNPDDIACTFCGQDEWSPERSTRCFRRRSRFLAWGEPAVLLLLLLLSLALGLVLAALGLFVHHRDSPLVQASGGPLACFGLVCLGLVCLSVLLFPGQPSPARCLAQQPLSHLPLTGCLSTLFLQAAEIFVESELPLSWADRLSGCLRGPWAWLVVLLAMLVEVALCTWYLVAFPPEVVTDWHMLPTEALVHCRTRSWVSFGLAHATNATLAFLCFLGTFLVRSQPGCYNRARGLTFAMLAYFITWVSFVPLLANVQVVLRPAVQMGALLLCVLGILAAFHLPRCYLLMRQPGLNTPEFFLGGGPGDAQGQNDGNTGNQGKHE
Description: In vitro hT1R1/hT1R3 umami taste receptor activation assay (FLIPR, dose response). It is filed as cell-based.

The mark [1] stands for this setting: read-out: EC50 for activation of a hT1R1/hT1R3 umami receptor expressed in an HEK293 cell line.
Where [2] appears, read: Table A, Umami Amides, read-out: Umami EC50.
The mark [3] stands for this setting: Table C, Umami Ureas, read-out: Umami EC50.

Consider `COc1ccc(CNC(=O)C(=O)NCCCc2ccccn2)c(OC)c1` [Example 127, N-(2,4-Dimethoxy-benzyl)-N′-(3-pyridin-2-yl-propyl)-oxalamide], for which the EC50 under setting [1] was determined as 1840 nM.
As for `Cc1ccc(CNC(=O)C(=O)NCCc2ccccn2)o1` [Example 152, N-((5-Methylfuran-2-yl)methyl)-N2-(2-(pyridin-2-yl)ethyl)oxalamide], the EC50 under setting [1] is 4900 nM.
Take `Cc1ccc(C(=O)NC2CCCCC2C)cc1C` (stereo not drawn) [Example A124, 3,4-dimethyl-N-(2-methylcyclohexyl)benzamide]: the EC50 under setting [2] was 10 nM.
`CCCC(CCC)NC(=O)c1cnc2ccccc2c1` [Example 102, N-(heptan-4-yl)quinoline-3-carboxamide]: under setting [1], the EC50 amounted to 15800 nM.
In the case of `COc1ccc2c(c1)CCCC2NC(=O)c1cccc(OC)c1N` (stereo not drawn) [Example A107, 2-amino-3-methoxy-N-(6-methoxy-1,2,3,4-tetrahydronaphthalen-1-yl)benzamide], the EC50 under setting [2] was determined as 70 nM.
As for `CCCC(CCC)NC(=O)Nc1ccc(C)cc1C` [Example C29, 1-(2,4-dimethylphenyl)-3-(heptan-4-yl)urea], under setting [3], the EC50 was 790 nM.
`CCCC(CCC)NC(=O)c1cc2ccccc2s1` [Example 34, N-(heptan-4-yl)benzo[b]thiophene-2-carboxamide]: the EC50 under setting [1] was determined as 210 nM.
For the compound `CCCC(CCC)NC(=O)c1cc2ccccc2[nH]1` [Example 35, N-(heptan-4-yl)-1H-indole-2-carboxamide], the EC50 under setting [1] amounted to 6800 nM.
With `COc1ccc(CNC(=O)c2ccnn2C)c(OC)c1` [Example 110, 2-Methyl-2H-pyrazole-3-carboxylic acid 2,4-dimethoxy-benzylamide], under setting [1], the EC50 was 6000 nM.
For the compound `COC(=O)[C@H](NC(=O)c1ccc(C)c(C)c1)C(C)C` [Example A62, (R)-methyl 2-(3,4-dimethylbenzamido)-3-methylbutanoate], the EC50 under setting [2] worked out at 250 nM.
As to `CCCC(NC(=O)Nc1ccc2c(c1)OCO2)C(C)C` (stereo not drawn) [Example C28, 1-(benzo[d][1,3]dioxol-5-yl)-3-(2-methylhexan-3-yl)urea], the EC50 under setting [3] turned out to be 570 nM.
Turning to `CCCC(CCC)NC(=O)c1cccc(OC)c1O` [Example A84, N-(heptan-4-yl)-2-hydroxy-3-methoxybenzamide], under setting [2], the EC50 came to 530 nM.
For `CCCC(CCC)NC(=O)c1ccc2c(c1)OCCO2` [Example 23, 2,3-Dihydro-benzo[1,4]dioxine-6-carboxylic acid (1-propyl-butyl)-amide], the EC50 under setting [1] was determined as 490 nM.
As to `CCCC(NC(=O)c1ccc(OC)c(C)c1)c1ccccc1` (stereo not drawn) [Example 113, 4-Methoxy-3-methyl-N-(1-phenyl-butyl)-benzamide], the EC50 under setting [1] was 2500 nM.
Take `CCC(NC(=O)c1ccc(OC)c(C)c1)c1ccc(OC)cc1` (stereo not drawn) [Example A96, 4-methoxy-N-(1-(4-methoxyphenyl)propyl)-3-methylbenzamide]: the EC50 under setting [2] was found to be 760 nM.
In the case of `C=Cc1ccc(C(=O)N[C@H](CC(C)C)C(=O)OC)cc1` [Example A57, (R)-methyl 4-methyl-2-(4-vinylbenzamido)pentanoate], the EC50 under setting [2] worked out at 180 nM.
Consider `CCC(COC)NC(=O)c1cc2cc(Cl)ccc2o1` (stereo not drawn) [Example A11, 5-chloro-N-(1-methoxybutan-2-yl)benzofuran-2-carboxamide], for which, under setting [2], the EC50 came to 1050 nM.
On to `CCCC(CCC)NC(=O)c1ccc2ncsc2c1` [Example A22, Benzothiazole-6-carboxylic acid (1-propyl-butyl)-amide], for which the EC50 under setting [2] stood at 1580 nM.
In the case of `CCCC(CCC)C(=O)Nc1ccc2c(c1)OCO2` [Example A50, N-(benzo[d][1,3]dioxol-5-yl)-2-propylpentanamide], the EC50 under setting [2] came out at 1570 nM.
Turning to `COC(=O)C(CCSC)NC(=O)c1cc2cc(OC)ccc2o1` (stereo not drawn) [Example A14, methyl 2-(5-methoxybenzofuran-2-carboxamido)-4-(methylthio)butanoate], the EC50 under setting [2] stood at 1140 nM.
On to `COc1cccc(CNC(=O)C(=O)NCCc2ccccn2)c1OC` [Example 146, N-(2,3-Dimethoxybenzyl)-N′-(2-(pyridin-2-yl)ethyl)oxalamide], for which the EC50 under setting [1] is 690 nM.
Consider `CCOc1ccc(NC(=O)c2c(Cl)ccc(Cl)c2OC)cc1` [Example A1, 3,6-Dichloro-N-(4-ethoxy-phenyl)-2-methoxy-benzamide], for which the EC50 under setting [2] was found to be 220 nM.
Take `CCC(CC(C)C)NC(=O)c1ccc2c(c1)OCO2` (stereo not drawn) [Example 5, N-(5-methylhexan-3-yl)benzo[d][1,3]dioxole-5-carboxamide]: the EC50 under setting [1] worked out at 570 nM.
As to `CCC(NC(=O)c1ccc(OC)c(C)c1)C(C)C` (stereo not drawn) [Example A58, 4-methoxy-3-methyl-N-(2-methylpentan-3-yl)benzamide], the EC50 under setting [2] is 200 nM.
Turning to `CCc1ccc(CNC(=O)C(=O)NCCc2ccccn2)cc1` [Example 139, N-(4-Ethylbenzyl)-N′-(2-(pyridin-2-yl)ethyl)oxalamide], under setting [1], the EC50 came out at 790 nM.
`CCOc1ccc(NC(=O)NC2CCCCC2C)cc1` (stereo not drawn) [Example C10, 1-(4-ethoxyphenyl)-3-(2-methylcyclohexyl)urea]: the EC50 under setting [3] was determined as 1510 nM.
Take `COC(=O)[C@@H](CC(C)C)NC(=O)c1oc2ccccc2c1C` [Example 33, (R)-methyl 4-methyl-2-(3-methylbenzofuran-2-carboxamido)pentanoate]: the EC50 under setting [1] was determined as 1180 nM.
With `CCCC(COC(C)=O)NC(=O)c1ccc2c(c1)OCO2` (stereo not drawn) [Example 14, 2-(benzo[d][1,3]dioxole-6-carboxamido)pentyl acetate], the EC50 under setting [1] is 11900 nM.
With `CCCC(CCC)NC(=O)Nc1ccccc1SC` [Example C18, 1-(heptan-4-yl)-3-(2-(methylthio)phenyl)urea], under setting [3], the EC50 amounted to 260 nM.
In the case of `CCCC(NC(=O)c1cc2cc(OC)ccc2o1)C(C)C` (stereo not drawn) [Example A12, 5-methoxy-N-(2-methylhexan-3-yl)benzofuran-2-carboxamide], the EC50 under setting [2] turned out to be 1130 nM.
In the case of `CCC(CC)NC(=O)c1ccc(OC)c(Cl)c1` [Example 61, 3-chloro-4-methoxy-N-(pentan-3-yl)benzamide], the EC50 under setting [1] came out at 560 nM.
As to `CCC(CC)NC(=O)c1cc2ccccc2o1` [Example A21, N-(pentan-3-yl)benzofuran-2-carboxamide], the EC50 under setting [2] is 1520 nM.
As for `CCCC(NC(=O)c1ccc2c(c1)OCO2)c1ccc(OC)cc1` (stereo not drawn) [Example 115, Benzo[1,3]dioxole-5-carboxylic acid [1-(4-methoxy-phenyl)-butyl]-amide], under setting [1], the EC50 stood at 4120 nM.
For `COC(=O)[C@@H](CC(C)C)NC(=O)c1cc2ccccc2[nH]1` [Example A34, (R)-methyl 2-(1H-indole-2-carboxamido)-4-methylpentanoate], the EC50 under setting [2] came to 530 nM.
Take `COc1ccc(NC(=O)NC2CCCCC2C)c(OC)c1` (stereo not drawn) [Example C8, 1-(2,4-dimethoxyphenyl)-3-(2-methylcyclohexyl)urea]: under setting [3], the EC50 came out at 1410 nM.
Take `Cc1ccc(CCNC(=O)c2occc2C)cc1` [Example 120, 3-methyl-N-(p-tolylethyl)furan-2-carboxamide]: the EC50 under setting [1] worked out at 6000 nM.
Turning to `CCCC(CCC)NC(=O)c1ccc2c(c1)OC(F)(F)O2` [Example 22, 2,2-difluoro-N-(heptan-4-yl)benzo[d][1,3]dioxole-5-carboxamide], the EC50 under setting [1] was 1510 nM.
Regarding `CC(=O)Oc1ccccc1CNC(=O)C(=O)NCCc1ccccn1` [Example 142], the EC50 under setting [1] is 8500 nM.
`COC(=O)[C@@H](CC(C)C)NC(=O)c1ccc2c(c1)CCO2` [Example A46, (R)-methyl 2-(2,3-dihydrobenzofuran-5-carboxamido)-4-methylpentanoate]: under setting [2], the EC50 was determined as 1320 nM.
